Data taken from US5085993A, “Coenzyme-independent L-sorbosone dehydrogenase from Pseudomonas putida” (Hoffmann-La Roche Inc., priority 1987, dated 1992).
Where two headings read alike, the source gives them in different places. Blank lines part the entries; values can stand above or below the compound they belong to.

Legend:
[1] = tested on: coenzyme independent L-sorbosone dehydrogenase of P. putida ATCC 21812
Description: Enzyme assay was carried out at 25° C. by measuring the decrease of absorbance at 600 nm of DCIP spectrophotometrically. One unit of enzyme activity was defined as the amount of enzyme which catalyzed the reduction of 1 μmole of DCIP per minute. The extinction coefficient of DCIP at pH 7.0 was taken as 9.45 mM^-1.
The basal reaction mixture was prepared by mixing 6 ml of 0.1M potassium phosphate buffer (pH 7.0) containing 0.3% Triton X-100, 0.45 ml of 2.5 mM DCIP and 10.35 ml of water. A cuvette with 1 cm light path contained 0.4 ml of basal reaction mixture, 20 μl of 10 mM phenazine methosulfate, 10 μl of enzyme solution and 20 μl of 110 mM L-sorbosone solution. A reference cuvette contained all the reagents except enzyme solution, but 10 μl of water was added instead. The reaction was started by the addition of the substrate.

[2] = tested on: coenzyme independent L-sorbosone dehydrogenase from P. putida ATCC 21812; experiment: Measurement of the Km value (DCIP/phenazine methosulfate enzyme assay); format: biochemical, Pseudomonas putida ATCC 21812; settings: DCIP and phenazine methosulfate as electron acceptors; 25° C., pH 7.0; read-out: apparent Michaelis constant (Km) for L-sorbosone
Description: In the procedure described under 1) above, the velocities of oxidizing reactions with varying concentrations of L-sorbosone were measured to determine the apparent Michaelis constant (Km) for L-sorbosone. Km value was calculated to be 13±2 mM with DCIP and phenazine methosulfate as electron acceptors.

[3] = tested on: coenzyme independent L-sorbosone dehydrogenase of P. putida ATCC 21812; experiment: Effect of addition of PQQ on the enzyme activity; format: biochemical, Pseudomonas putida ATCC 21812; settings: 0 PQQ = 100
Description: Significant increase of the enzyme activity was observed by the addition of PQQ.

SMILES: O=C(O)CI [ICH2 COOH, monoiodoacetate]
Relative activity (%) [1]: 88.6%

SMILES: [N-]=[N+]=[N-].[Na+] [NaN3, Sodium azide]
Relative activity (%) ([1]; inhibitor 25.0 mM, None = 100.0): 77.3%

SMILES: O=CC(=O)[C@@H](O)[C@H](O)[C@@H](O)CO [L-sorbosone]
Km [2]: 13 ± 2 mM

Relative enzyme activity ([3]; PQQ concentration 0.1 (Micro Moles)): 106
Relative enzyme activity ([3]; PQQ concentration 0.2 (Micro Moles), 0.2 µM): 142
Relative enzyme activity ([3]; PQQ concentration 0.5 (Micro Moles), 0.5 µM): 150
Relative enzyme activity ([3]; PQQ concentration 0.9 (Micro Moles), 0.9 µM): 158
Relative enzyme activity ([3]; PQQ concentration 6.0 (Micro Moles), 6 µM): 174
Relative enzyme activity ([3]; PQQ concentration 15.0 (Micro Moles), 15 µM): 192
SMILES: O=C(O)c1cc(C(=O)O)c2c(n1)C(=O)C(=O)c1cc(C(=O)O)[nH]c1-2 [PQQ, pyrroloquinoline quinone]
